The results in this text go back to patent US20120045835A1, “PORTABLE DEVICE BASED ON IMMOBILIZED CELLS FOR THE DETECTION OF ANALYTES” (priority 2009, published 2012).

SMILES strings stand for the structures.

Assay [1] has as its system yeast cells specific to estrogens. Put plainly: Calibration curves for 17-β estradiol with immobilized yeast biosensor. It counts as cell-based. Conditions: yeast immobilized in matrix (2% atelocollagen, 0.5% polydimethylsiloxane); similar to liquid cultures. The text has this: For example, the device employs S. cerevisiae cells specific for compounds with estrogenic/androgenic activity: for this aim an integrative vector with a regulatory element containing two or more tandem copies of the Androgen or Estrogen Responsive Element (ARE/ERE) upstream of the gene encoding for the bioluminescent reporter protein (e.g., luciferase from P. pyralis) and a vector encoding for human androgen or estrogen receptor were introduced in S. cerevisiae cells (A new highly specific and robust yeast androgen bioassay for the detection of agonists and antagonists Toine F. H. Boyce, Richard J. R. Helsdingen, Astrid R. M. Hamers, Majorie B. M. van Duursen, Michel W. F. Nielen, and Ron L. A. P. Hoogenboom). In this work, GFP is used as fluorescent reporter gene that also finds application in the present invention.
Analogously to Example 3, but with slight modifications to single components of the immobilization matrix (2% atelocollagen and 0.5% polydimethylsiloxane), a biosensor based on yeast cells specific to estrogens was immobilized.
Recombinant cells are grown in SC liquid culture (synthetic complete, selective for plasmid auxotrophies) at 30° C. up to an optical density at 600 nm of 0.6. Then, cells are immobilized as previously described.

Assay [2] has as its system recombinant E. coli cells specific for Cu^2+. Briefly: Calibration curve for copper with immobilized bioluminescent biosensor and control strain. The assay is classed as cell-based. Particulars: E. coli immobilized in the matrix; signal corrected with control strain constitutively expressing firefly luciferase. Here is the method: For each calibration curve a limit of detection is calculated (LOD) according to the standard deviation on the blank signal measured with the calibration curve. It is provided by the analyte concentration corresponding to the signal XLOD:
A calibration curve for copper was performed by employing recombinant E. coli cells specific for Cu^2+ and a control strain that constitutively express firefly luciferase. The use of a control strain allows to correct the analytical signal with a detection limit of 0.05 ppm for Cu^2+.
Cells are grown in selective liquid medium at 37° C. (e.g., Luria Bertani Broth with antibiotic for plasmid maintenance) for each strain up to an optical density at 600 nm in the range 0.6-0.8.
Then, a buffered solution at pH 6.5-7.5 is added to each cell suspension containing nutrients and is mixed 1:2-1:4 with the immobilization matrix.
A solution containing 1% atelocollagen in PBS (NaCl 137 mM, KCl 2.7 mM, NaH2PO4 1.4 mM, Na2HPO4 4.3 mM) at pH 7.4 with decorin final concentration 15% w/w atelocollagen.
Polyvinylpyrrolidone (PVP) and modified polysiloxanes (e.g., polydimethylsiloxane, tetraethyl-orthosilicate) are added to a final concentration of 1% and 0.4%, respectively.

As for `C[C@]12CC[C@@H]3c4ccc(O)cc4CC[C@H]3[C@@H]1CC[C@@H]2O` [17-β estradiol], in assay [1], the limit of detection came to 10 pM. With `[Cu+2]` [Cu^2+], the detection limit in assay [2] is 0.05 ppm.
